Assay results from patent publication US6365166B2, “Gel formulations for topical drug delivery” (priority 1996, dated 2002).
Like-named read-outs stand apart in the source and are kept apart here.

How the values were obtained:
[1] = test system: herpes simplex virus; conditions: subcutaneously, dermally or intravaginally 24 hours before infection; cited from earlier work
[2] = test system: interferon and tumor necrosis factor; conditions: mice, oral administration; cited from earlier work
[3] = test system: interferon and tumor necrosis factor; conditions: rats, oral administration; cited from earlier work
[4] = Solubility of the drug in gel formulations of the invention; assay type: physicochemical
[5] = test system: human peripheral blood mononuclear cells; conditions: cultures of human peripheral blood mononuclear cells; cited from earlier work

SMILES: CCOCc1nc2c(N)nc3ccccc3c2n1CC(C)(C)O [4-amino-2-ethoxymethyl-α,α-dimethyl-1H-imidazo[4,5-c]quinoline-1-ethanol]
- antiviral activity [1]: antiviral activity
- induction of interferon and tumor necrosis factor [2]: induce interferon and tumor necrosis factor
- induction of interferon and tumor necrosis factor [3]: induce interferon and tumor necrosis factor
- solubility in formulations of the invention [4]: sufficiently soluble
- solubility in formulations of the invention ([4]; listed as 4-Amino-2-ethoxymethyl-α,α-dimethyl-1H-imidazo[4,5-c]quinoline-1-ethanol): substantial solubility
- cytokine induction [5]: induce interferon-α, tumor necrosis factor, interleukin-1α, interleukin-1β, interleukin-6 and interleukin-8
